Test results taken from ChEMBL document CHEMBL1201862, “PubChem BioAssay data set” (2004).
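Results reflect a 48-hour exposure of cells in 96-well plates to compound at five concentrations. The concentration for 50% growth inhibition is given as GI50.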 Calls of active or inactive are those of the source. Rule as the data show it: active = GI50 up to about 1.1 µM and inactive = higher.

Tests used:
Assay in all cases: NCI-60 cell line screen, 48 h
[1] = system: TK-10
[2] = system: A498
[3] = system: HOP-18
[4] = system: UACC-62
[5] = system: OVCAR-5
[6] = system: SF-295
[7] = system: 786-0
[8] = system: RXF 393
[9] = system: U-251
[10] = system: SK-MEL-5
[11] = system: SN12C
[12] = system: HCT-15
[13] = system: SW-620
[14] = system: HCT-116
[15] = system: HCC 2998
[16] = system: DLD-1
[17] = system: M19-MEL
[18] = system: KM12
[19] = system: M14
[20] = system: RPMI-8226
[21] = system: LOX IMVI
[22] = system: OVCAR-3
[23] = system: K562
[24] = system: OVCAR-4
[25] = system: SF-268
[26] = system: SR
[27] = system: SF-539
[28] = system: OVCAR-8
[29] = system: SK-OV-3
[30] = system: UO-31
[31] = system: NCI-H460
[32] = system: A549
[33] = system: SNB-78
[34] = system: HOP-92
[35] = system: Malme-3M
[36] = system: HOP-62
[37] = system: SK-MEL-2
[38] = system: DMS-114
[39] = system: RXF 631
[40] = system: LXFL 529
[41] = system: CCRF-CEM
[42] = system: NCI-H522
[43] = system: NCI-H226
[44] = system: SK-MEL-28
[45] = system: DMS-273
[46] = system: UACC-257
[47] = system: HT-29
[48] = system: EKVX
[49] = system: MOLT-4
[50] = system: HL-60
[51] = system: COLO 205
[52] = system: KM-20L2
[53] = system: SNB-19
[54] = system: NCI-H23
[55] = system: IGROV-1
[56] = system: CAKI-1
[57] = system: ACHN
[58] = system: XF498
[59] = system: SNB-75

O=C(CC(=O)c1cccc([N+](=O)[O-])c1)C(=O)Nc1nc([N+](=O)[O-])cs1
GI50 [1]: > 100 µM (inactive)
GI50 [2]: > 100 µM (inactive)
GI50 [3]: > 100 µM (inactive)
GI50 [4]: > 100 µM (inactive)
GI50 [5]: > 100 µM (inactive)
GI50 [6]: > 100 µM (inactive)
GI50 [7]: > 100 µM (inactive)
GI50 [8]: > 100 µM (inactive)
GI50 [9]: > 100 µM (inactive)
GI50 [10]: > 100 µM (inactive)
GI50 [11]: > 100 µM (inactive)
GI50 [12]: 79.6 µM
GI50 [13]: > 100 µM (inactive)
GI50 [14]: > 100 µM (inactive)
GI50 [15]: > 100 µM (inactive)
GI50 [16]: > 100 µM (inactive)
GI50 [17]: > 100 µM (inactive)
GI50 [18]: > 100 µM (inactive)
GI50 [19]: > 100 µM (inactive)
GI50 [20]: 65 µM (inactive)
GI50 [21]: > 100 µM (inactive)
GI50 [22]: > 100 µM (inactive)
GI50 [23]: 94.8 µM (inactive)
GI50 [24]: 0.0307 µM (active)
GI50 [25]: > 100 µM (inactive)
GI50 [26]: 83 µM (inactive)
GI50 [27]: > 100 µM (inactive)
GI50 [28]: > 100 µM (inactive)
GI50 [29]: > 100 µM (inactive)
GI50 [30]: > 100 µM (inactive)
GI50 [31]: > 100 µM (inactive)
GI50 [32]: > 100 µM (inactive)
GI50 [33]: > 100 µM (inactive)
GI50 [34]: > 100 µM (inactive)
GI50 [35]: > 100 µM (inactive)
GI50 [36]: > 100 µM (inactive)
GI50 [37]: > 100 µM (inactive)
GI50 [38]: > 100 µM (inactive)
GI50 [39]: > 100 µM (inactive)
GI50 [40]: 60.1 µM (inactive)
GI50 [41]: 47.8 µM (inactive)
GI50 [42]: 33.3 µM (inactive)
GI50 [43]: > 100 µM (inactive)
GI50 [44]: > 100 µM (inactive)
GI50 [45]: > 100 µM (inactive)
GI50 [46]: > 100 µM (inactive)
GI50 [47]: > 100 µM (inactive)
GI50 [48]: > 100 µM (inactive)
GI50 [49]: > 100 µM (inactive)
GI50 [50]: > 100 µM (inactive)
GI50 [51]: > 100 µM (inactive)
GI50 [52]: > 100 µM (inactive)
GI50 [53]: > 100 µM (inactive)
GI50 [54]: > 100 µM (inactive)
GI50 [55]: > 100 µM (inactive)
GI50 [56]: 83.8 µM (inactive)

Oc1ccccc1/C=C/c1csnn1
GI50 [1]: > 100 µM (inactive)
GI50 [2]: > 100 µM (inactive)
GI50 [3]: > 100 µM (inactive)
GI50 [4]: > 100 µM (inactive)
GI50 [57]: > 100 µM (inactive)
GI50 [5]: > 100 µM (inactive)
GI50 [6]: > 100 µM (inactive)
GI50 [7]: > 31.6 µM (inactive)
GI50 [8]: > 100 µM (inactive)
GI50 [9]: > 100 µM (inactive)
GI50 [10]: > 100 µM (inactive)
GI50 [11]: > 100 µM (inactive)
GI50 [12]: > 51.4 µM
GI50 [13]: > 65.9 µM (inactive)
GI50 [14]: 98.4 µM (inactive)
GI50 [58]: > 100 µM (inactive)
GI50 [15]: > 100 µM (inactive)
GI50 [16]: > 100 µM (inactive)
GI50 [17]: > 100 µM (inactive)
GI50 [59]: > 100 µM (inactive)
GI50 [18]: > 100 µM (inactive)
GI50 [19]: > 100 µM (inactive)
GI50 [20]: > 100 µM (inactive)
GI50 [21]: > 52.1 µM (inactive)
GI50 [22]: > 100 µM (inactive)
GI50 [23]: > 100 µM (inactive)
GI50 [24]: > 100 µM (inactive)
GI50 [25]: > 100 µM (inactive)
GI50 [26]: > 46.2 µM (inactive)
GI50 [27]: > 100 µM (inactive)
GI50 [28]: > 100 µM (inactive)
GI50 [29]: > 100 µM (inactive)
GI50 [30]: > 100 µM (inactive)
GI50 [31]: > 69.7 µM (inactive)
GI50 [32]: > 100 µM (inactive)
GI50 [33]: > 100 µM (inactive)
GI50 [34]: > 100 µM (inactive)
GI50 [35]: > 100 µM (inactive)
GI50 [36]: > 100 µM (inactive)
GI50 [37]: > 100 µM (inactive)
GI50 [38]: > 84.1 µM (inactive)
GI50 [39]: > 100 µM (inactive)
GI50 [40]: > 100 µM (inactive)
GI50 [41]: > 100 µM (inactive)
GI50 [42]: > 100 µM (inactive)
GI50 [43]: > 100 µM (inactive)
GI50 [44]: > 100 µM (inactive)
GI50 [45]: > 100 µM (inactive)
GI50 [46]: > 100 µM (inactive)
GI50 [47]: > 100 µM (inactive)
GI50 [48]: > 100 µM (inactive)
GI50 [49]: > 100 µM (inactive)
GI50 [50]: 39.4 µM (inactive)
GI50 [51]: > 100 µM (inactive)
GI50 [52]: > 100 µM (inactive)
GI50 [53]: > 100 µM (inactive)
GI50 [54]: > 100 µM (inactive)
GI50 [55]: > 100 µM (inactive)
GI50 [56]: > 100 µM (inactive)
